Laboratory results taken from PubChem BioAssay (NCI).
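1) Cells in 96-well plates. 2) Compound, 48 h, 5 concentrations. 3) Linear interpolation between surrounding doses. 4) Unreached endpoint = highest concentration. Definition used: TGI = concentration required for complete inhibition of growth.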

How the values were obtained:
Test in all cases: NCI anticancer screen, dose series, 48 h
786-0 renal = system: 786-0 renal
A498 renal = system: A498 renal
A549 NSCLC = system: A549 NSCLC
ACHN renal = system: ACHN renal
BT-549 breast = system: BT-549 breast
CAKI-1 renal = system: CAKI-1 renal
CCRF-CEM leukemia = system: CCRF-CEM leukemia
COLO 205 colon = system: COLO 205 colon
DLD-1 colon = system: DLD-1 colon
DMS 114 small cell lung = system: DMS 114 small cell lung
DMS 273 small cell lung = system: DMS 273 small cell lung
DU-145 prostate = system: DU-145 prostate
EKVX NSCLC = system: EKVX NSCLC
HCC-2998 colon = system: HCC-2998 colon
HCT-116 colon = system: HCT-116 colon
HCT-15 colon = system: HCT-15 colon
HL-60(TB) leukemia = system: HL-60(TB) leukemia
HOP-18 NSCLC = system: HOP-18 NSCLC
HOP-62 NSCLC = system: HOP-62 NSCLC
HOP-92 NSCLC = system: HOP-92 NSCLC
HS 578T breast = system: HS 578T breast
HT29 colon = system: HT29 colon
IGROV1 ovarian = system: IGROV1 ovarian
K-562 leukemia = system: K-562 leukemia
KM12 colon = system: KM12 colon
KM20L2 colon = system: KM20L2 colon
LOX IMVI melanoma = system: LOX IMVI melanoma
LXFL 529 NSCLC = system: LXFL 529 NSCLC
M14 melanoma = system: M14 melanoma
M19-MEL melanoma = system: M19-MEL melanoma
MALME-3M melanoma = system: MALME-3M melanoma
MCF7 breast = system: MCF7 breast
MDA-MB-231 breast = system: MDA-MB-231 breast
MDA-MB-435 = system: MDA-MB-435
MDA-N = system: MDA-N
MOLT-4 leukemia = system: MOLT-4 leukemia
NCI-H226 lung = system: NCI-H226 lung
NCI-H23 lung = system: NCI-H23 lung
NCI-H460 lung = system: NCI-H460 lung
NCI-H522 lung = system: NCI-H522 lung
NCI/ADR-RES ovarian = system: NCI/ADR-RES ovarian
OVCAR-3 ovarian = system: OVCAR-3 ovarian
OVCAR-4 ovarian = system: OVCAR-4 ovarian
OVCAR-5 ovarian = system: OVCAR-5 ovarian
OVCAR-8 ovarian = system: OVCAR-8 ovarian
PC-3 prostate = system: PC-3 prostate
RPMI-8226 leukemia = system: RPMI-8226 leukemia
RXF 393 renal = system: RXF 393 renal
SF-268 CNS = system: SF-268 CNS
SF-295 CNS = system: SF-295 CNS
SF-539 CNS = system: SF-539 CNS
SK-MEL-2 melanoma = system: SK-MEL-2 melanoma
SK-MEL-28 melanoma = system: SK-MEL-28 melanoma
SK-MEL-5 melanoma = system: SK-MEL-5 melanoma
SK-OV-3 ovarian = system: SK-OV-3 ovarian
SN12C renal = system: SN12C renal
SNB-19 CNS = system: SNB-19 CNS
SNB-75 CNS = system: SNB-75 CNS
SR leukemia = system: SR leukemia
SW-620 colon = system: SW-620 colon
TK-10 renal = system: TK-10 renal
U251 CNS = system: U251 CNS
UACC-257 melanoma = system: UACC-257 melanoma
UACC-62 melanoma = system: UACC-62 melanoma
UO-31 renal = system: UO-31 renal
XF 498 CNS = system: XF 498 CNS

SMILES: COc1ccc(-c2nc(N)n(C)c2SSc2c(-c3ccc(OC)cc3)nc(N)n2C)cc1
- TGI (786-0 renal): 29.2 µM
- TGI (A498 renal): 35.7 µM
- TGI (A549 NSCLC): 45.4 µM
- TGI (ACHN renal): 8.3 µM
- TGI (BT-549 breast): 5.54 µM
- TGI (CAKI-1 renal): 24.6 µM
- TGI (CCRF-CEM leukemia): 11.9 µM
- TGI (COLO 205 colon): 4.76 µM
- TGI (DLD-1 colon): 15.3 µM
- TGI (DMS 114 small cell lung): 4.61 µM
- TGI (DMS 273 small cell lung): 13.4 µM
- TGI (DU-145 prostate): 31.4 µM
- TGI (EKVX NSCLC): 44.3 µM
- TGI (HCC-2998 colon): 31.8 µM
- TGI (HCT-116 colon): 7.49 µM
- TGI (HCT-15 colon): 8.73 µM
- TGI (HL-60(TB) leukemia): 14.1 µM
- TGI (HOP-18 NSCLC): 17.8 µM
- TGI (HOP-62 NSCLC): 32.1 µM
- TGI (HOP-92 NSCLC): 6.21 µM
- TGI (HS 578T breast): 29.7 µM
- TGI (HT29 colon): 28.5 µM
- TGI (IGROV1 ovarian): 29.4 µM
- TGI (K-562 leukemia): 15.5 µM
- TGI (KM12 colon): 26.7 µM
- TGI (KM20L2 colon): 30.9 µM
- TGI (LOX IMVI melanoma): 4.22 µM
- TGI (LXFL 529 NSCLC): 3.4 µM
- TGI (M14 melanoma): 4.87 µM
- TGI (M19-MEL melanoma): 4.67 µM
- TGI (MALME-3M melanoma): 22.2 µM
- TGI (MCF7 breast): 23 µM
- TGI (MDA-MB-231 breast): 19.7 µM
- TGI (MDA-MB-435): 13.9 µM
- TGI (MDA-N): 6 µM
- TGI (MOLT-4 leukemia): 5.1 µM
- TGI (NCI-H226 lung): 37.3 µM
- TGI (NCI-H23 lung): 17.8 µM
- TGI (NCI-H460 lung): 42.5 µM
- TGI (NCI-H522 lung): 3.57 µM
- TGI (NCI/ADR-RES ovarian): 35.1 µM
- TGI (OVCAR-3 ovarian): 21.2 µM
- TGI (OVCAR-4 ovarian): 15.9 µM
- TGI (OVCAR-5 ovarian): 14.5 µM
- TGI (OVCAR-8 ovarian): 16.3 µM
- TGI (PC-3 prostate): 18.2 µM
- TGI (RPMI-8226 leukemia): 7.46 µM
- TGI (RXF 393 renal): 6.63 µM
- TGI (SF-268 CNS): 33.7 µM
- TGI (SF-295 CNS): 25.5 µM
- TGI (SF-539 CNS): 13.4 µM
- TGI (SK-MEL-2 melanoma): 29.5 µM
- TGI (SK-MEL-28 melanoma): 10.2 µM
- TGI (SK-MEL-5 melanoma): 4.15 µM
- TGI (SK-OV-3 ovarian): 32.6 µM
- TGI (SN12C renal): 25.5 µM
- TGI (SNB-19 CNS): 27.2 µM
- TGI (SNB-75 CNS): 24.8 µM
- TGI (SR leukemia): 5.48 µM
- TGI (SW-620 colon): 5.09 µM
- TGI (TK-10 renal): 27.6 µM
- TGI (U251 CNS): 26.2 µM
- TGI (UACC-257 melanoma): 14.5 µM
- TGI (UACC-62 melanoma): 10 µM
- TGI (UO-31 renal): 11.9 µM
- TGI (XF 498 CNS): 4.92 µM
